In BindingDB's records for PubMed 35119267 (University of Toronto Mississauga, 2022):

Target: Histone deacetylase 3 (Homo sapiens, UniProt O15379)
Assay: Inhibition of full length human recombinant HDAC3 expressed in Sf9 baculovirus system using FAM-labeled acetylated peptide as substrate by measuring fluorescence intensity by EMSA method

Histone deacetylase 3, sequence (O15379 whole entry): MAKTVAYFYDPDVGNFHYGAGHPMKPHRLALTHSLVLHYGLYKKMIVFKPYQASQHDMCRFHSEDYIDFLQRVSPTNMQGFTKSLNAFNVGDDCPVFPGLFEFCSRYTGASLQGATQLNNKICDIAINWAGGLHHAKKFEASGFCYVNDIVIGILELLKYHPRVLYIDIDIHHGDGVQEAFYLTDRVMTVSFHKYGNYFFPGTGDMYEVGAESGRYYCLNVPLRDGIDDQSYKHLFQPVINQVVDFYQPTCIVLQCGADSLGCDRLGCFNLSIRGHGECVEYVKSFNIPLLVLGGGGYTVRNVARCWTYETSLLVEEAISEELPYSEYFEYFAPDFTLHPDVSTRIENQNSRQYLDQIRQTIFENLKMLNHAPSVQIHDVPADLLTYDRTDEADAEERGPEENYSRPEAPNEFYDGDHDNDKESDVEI

IC50: > 1000 nM
Compound: O=C(NO)c1ccc(CN(C2CC2)S(=O)(=O)c2cc(F)c(F)c(F)c2F)cc1
